Experimental data taken from PubChem BioAssay AID248 (DTP/NCI, 2004).
“And” between values parts separate entries of the source, which are not always exact repeats. Equal entries are not always repeated. Toxic doses and inconclusive results are not listed. Rule as the data show it: active = T/C of 150% or more; inactive = T/C below 125%.

Test system: L1210 leukemia ip in BDF1 mice, survival T/C
Assay: NCI In Vivo Anticancer Drug Screen. Data for tumor model L1210 Leukemia (intraperitoneal) in B6D2F1 (BDF1) mice
Details: endpoint: mean survival time, higher = longer survival
Procedure, shortened: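 Transplanted-tumor mice were given test agent; controls received vehicle only. Survival readings from the two groups were divided (treated over control).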

[1] = dose: 100.0 mg/kg/injection, schedule: Q01DX009 (ip), vehicle: saline with Tween-80
[2] = dose: 200.0 mg/kg/injection, schedule: Q01DX009 (ip), vehicle: saline with Tween-80
[3] = dose: 400.0 mg/kg/injection, schedule: Q01DX009 (ip), vehicle: saline with Tween-80
[4] = dose: 100.0 mg/kg/injection, schedule: Q04DX003 (ip), vehicle: Klucel (hydroxypropylcellulose) (HPC)
[5] = dose: 200.0 mg/kg/injection, schedule: Q04DX003 (ip), vehicle: Klucel (hydroxypropylcellulose) (HPC)
[6] = dose: 400.0 mg/kg/injection, schedule: Q04DX003 (ip), vehicle: Klucel (hydroxypropylcellulose) (HPC)

Measured: T/C

CCCCOC(=O)c1[nH]cnc1N
inactive: dose: 100.0 mg/kg/injection, schedule: Q01DX001 (ip), vehicle: saline 114 % of control | dose: 200.0 mg/kg/injection, schedule: Q01DX001 (ip), vehicle: saline 110 % of control

CNCC(C)CNC
inactive: dose: 25.0 mg/kg/injection, schedule: Q04DX003 (ip), vehicle: saline 94 % of control | dose: 50.0 mg/kg/injection, schedule: Q01DX009 (ip), vehicle: saline 103 % of control | dose: 50.0 mg/kg/injection, schedule: Q04DX003 (ip), vehicle: saline 93 % of control | dose: 100.0 mg/kg/injection, schedule: Q01DX009 (ip), vehicle: saline 103 % of control | dose: 100.0 mg/kg/injection, schedule: Q04DX003 (ip), vehicle: saline 95 % of control and 97 % of control

Oc1c(Cl)cc(Cl)cc1C=NCC1CCC(CN=Cc2cc(Cl)cc(Cl)c2O)CC1 (stereo not given)
inactive: [1] 92 % of control | [2] 92 % of control | [3] 94 % of control

Cc1ccccc1NC(=O)NCC(=O)O
inactive: [4] 104 % of control | [5] 98 % of control | [6] 93 % of control

Cn1nc(N)c2cc(C(N)=O)c(N)nc21
inactive: dose: 100.0 mg/kg/injection, schedule: Q01DX009 (ip), vehicle: Klucel (hydroxypropylcellulose) (HPC) 88 % of control | [4] 96 % of control | [5] 100 % of control | dose: 400.0 mg/kg/injection, schedule: Q01DX009 (ip), vehicle: Klucel (hydroxypropylcellulose) (HPC) 90 % of control | [6] 97 % of control

O=[N+]([O-])c1ccc(C[Se]c2ncnc3c2ncn3C2OC(CO)C(O)C2O)cc1 (stereo not given)
inactive: dose: 3.12 mg/kg/injection, schedule: Q01DX009 (ip), vehicle: saline 100 % of control | dose: 6.25 mg/kg/injection, schedule: Q01DX005 (ip), vehicle: saline 106 % of control | dose: 6.25 mg/kg/injection, schedule: Q01DX009 (ip), vehicle: saline 98 % of control | dose: 12.5 mg/kg/injection, schedule: Q01DX005 (ip), vehicle: saline 96 % of control | dose: 12.5 mg/kg/injection, schedule: Q01DX009 (ip), vehicle: saline 98 % of control | dose: 12.5 mg/kg/injection, schedule: Q01DX009 (ip), vehicle: water 93 % of control | dose: 25.0 mg/kg/injection, schedule: Q01DX005 (ip), vehicle: saline 109 % of control | dose: 25.0 mg/kg/injection, schedule: Q01DX009 (ip), vehicle: saline 102 % of control | dose: 25.0 mg/kg/injection, schedule: Q01DX009 (ip), vehicle: water 98 % of control | dose: 50.0 mg/kg/injection, schedule: Q01DX009 (ip), vehicle: water 93 % of control

Cc1ccc(S(=O)NOCCCCONS(=O)c2ccc(C)cc2)cc1 (stereo not given)
inactive: dose: 100.0 mg/kg/injection, schedule: Q01DX001 (ip), vehicle: saline with Tween-80 98 % of control | [1] 100 % of control and 89 % of control | dose: 100.0 mg/kg/injection, schedule: Q04DX002 (ip), vehicle: saline with Tween-80 96 % of control and 91 % of control | dose: 200.0 mg/kg/injection, schedule: Q01DX001 (ip), vehicle: saline with Tween-80 95 % of control | [2] 86 % of control and 87 % of control | dose: 200.0 mg/kg/injection, schedule: Q04DX002 (ip), vehicle: saline with Tween-80 93 % of control and 98 % of control | dose: 400.0 mg/kg/injection, schedule: Q01DX001 (ip), vehicle: saline with Tween-80 106 % of control | [3] 90 % of control | dose: 400.0 mg/kg/injection, schedule: Q04DX002 (ip), vehicle: saline with Tween-80 104 % of control and 105 % of control

O=C1NC(=O)C(c2ccccc2)O1 (stereo not given)
inactive: dose: 100.0 mg/kg/injection, schedule: Q01DX001 (ip), vehicle: other 92 % of control | dose: 200.0 mg/kg/injection, schedule: Q01DX001 (ip), vehicle: other 103 % of control | dose: 400.0 mg/kg/injection, schedule: Q01DX001 (ip), vehicle: other 97 % of control
